Reference: patent publication US6355799B1, “Substituted benzene compounds, process for their preparation, and herbicidal and defoliant compositions containing them” (ISK Americas Incorporated, priority 1997, dated 2002)

What was measured:
Format in all cases: in vivo
[1] = test system: redroot pigweed (Amaranthus retroflexus, AMARE); assay: Pre-emerge test, greenhouse herbicide activity screening; conditions: rating scale 0-100, 14 days after application
Outline: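 Herbicidal damage is scored 0 (none) to 100 (complete plant death) two weeks after a simulated field spray. Rates span 15–1000 g ai/ha, delivered in acetone at 187 l/ha. For post-emergence treatments, plants have 2–3 leaves and the spray carries 0.25% v/v non-ionic surfactant.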

[2] = test system: barnyardgrass (Echinochloa crus-galli, ECHCG); assay: as above; conditions: rating scale 0-100, 14 days after application
Outline: (§1)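 Sandy loam pots; pre-emerge: sown 1 d pre-spray, surface-watered after, then bottom-watered. Post-emerge: sown 8–21 d before, 2–3 leaf stage, + 0.25% v/v NIS, bottom-watered. Acetone, 187 l/ha track spray, 15–1000 g ai/ha. 0–100 injury score, day 14.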

[3] = test system: green foxtail (Setaria viridis, SETVI); assay: as above; conditions: rating scale 0-100, 14 days after application
Outline: as §1

[4] = test system: ivyleaf morningglory (Ipomoea hederacea, IPOHE); assay: as above; conditions: rating scale 0-100, 14 days after application
Outline: as §1

[5] = test system: johnsongrass (Sorghum halepense, SORHA); assay: as above; conditions: rating scale 0-100, 14 days after application
Outline: as §1

[6] = test system: lambsquarters (Chenopodium album, CHEAL); assay: as above; conditions: rating scale 0-100, 14 days after application
Outline: as §1

[7] = test system: large crabgrass (Digitaria sanguinalis, DIGSA); assay: as above; conditions: rating scale 0-100, 14 days after application
Outline: as §1

[8] = test system: sicklepod (Cassia obtusifolia, CASOB); assay: as above; conditions: rating scale 0-100, 14 days after application
Outline: as §1

[9] = test system: velvetleaf (Abutilon theophrasti, ABUTH); assay: as above; conditions: rating scale 0-100, 14 days after application
Outline: as §1

[10] = test system: field corn (Zea mays L., var. Dekalb 535, CORN); assay: Pre-emerge test, crop safety; conditions: rating scale 0-100, 14 days after application
Outline: as §1

[11] = test system: upland rice (Oryza sp., var. Tebonnet, RICE); assay: Pre-emerge test, crop safety; conditions: rating scale 0-100, 14 days after application
Outline: as §1

[12] = test system: barnyardgrass (Echinochloa crus-galli, ECHCG); assay: Post-emerge test, greenhouse herbicide activity screening; conditions: rating scale 0-100 (0 no damage, 100 complete death), 14 days after application
Outline: (§2)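 Plants grown in 10 cm pots of sandy loam mix received acetone-dissolved compounds through a moving flat-fan nozzle. Doses ranged from 15 to 1000 g ai/ha. Pre-emerge pots were seeded one day earlier, post-emerge pots 8–21 days earlier. Fourteen days on, each pot was graded 0–100 for damage.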

[13] = test system: common ragweed (Ambrosia artemisizfolia L., AMBEL); assay: as above; conditions: rating scale 0-100 (0 no damage, 100 complete death), 14 days after application
Outline: as §2

[14] = test system: green foxtail (Setaria viridis, SETVI); assay: as above; conditions: rating scale 0-100 (0 no damage, 100 complete death), 14 days after application
Outline: as §2

[15] = test system: ivyleaf morningglory (Ipomoea hederacea, IPOHE); assay: as above; conditions: rating scale 0-100 (0 no damage, 100 complete death), 14 days after application
Outline: as §2

[16] = test system: johnsongrass (Sorghum halepense, SORHA); assay: as above; conditions: rating scale 0-100 (0 no damage, 100 complete death), 14 days after application
Outline: as §2

[17] = test system: lambsquarters (Chenopodium album, CHEAL); assay: as above; conditions: rating scale 0-100 (0 no damage, 100 complete death), 14 days after application
Outline: as §2

[18] = test system: large crabgrass (Digitaria sanguinalis, DIGSA); assay: as above; conditions: rating scale 0-100 (0 no damage, 100 complete death), 14 days after application
Outline: as §2

[19] = test system: redroot pigweed (Amaranthus retroflexus, AMARE); assay: as above; conditions: rating scale 0-100 (0 no damage, 100 complete death), 14 days after application
Outline: as §2

[20] = test system: sicklepod (Cassia obtusifolia, CASOB); assay: as above; conditions: rating scale 0-100 (0 no damage, 100 complete death), 14 days after application
Outline: as §2

[21] = test system: velvetleaf (Abutilon theophrasti, ABUTH); assay: as above; conditions: rating scale 0-100 (0 no damage, 100 complete death), 14 days after application
Outline: as §2

[22] = test system: field corn (Zea mays L., var. Dekalb 535, CORN); assay: Post-emerge test, crop safety; conditions: rating scale 0-100 (0 no damage, 100 complete death), 14 days after application
Outline: as §1

[23] = test system: upland rice (Oryza sp., var. Tebonnet, RICE); assay: Post-emerge test, crop safety; conditions: rating scale 0-100 (0 no damage, 100 complete death), 14 days after application
Outline: as §1

## CCCOC(=O)C(Cl)Cc1c(OC)c(Cl)cc(F)c1-n1c(=O)cc(C(F)(F)F)n(C)c1=O (single isomer, unassigned) [14-6]
[1]; 63 g ai/ha
  Pre-emerge herbicidal activity, phytotoxicity rating AMARE: 100
[1]; 250 g ai/ha
  Pre-emerge herbicidal activity, phytotoxicity rating AMARE: 100
[2]; 63 g ai/ha
  Pre-emerge herbicidal activity, phytotoxicity rating ECHCG: 0
[2]; 250 g ai/ha
  Pre-emerge herbicidal activity, phytotoxicity rating ECHCG: 70
[3]; 63 g ai/ha
  Pre-emerge herbicidal activity, phytotoxicity rating SETVI: 10
[3]; 250 g ai/ha
  Pre-emerge herbicidal activity, phytotoxicity rating SETVI: 100
[4]; 63 g ai/ha
  Pre-emerge herbicidal activity, phytotoxicity rating IPOHE: 10
[4]; 250 g ai/ha
  Pre-emerge herbicidal activity, phytotoxicity rating IPOHE: 20
[5]; 63 g ai/ha
  Pre-emerge herbicidal activity, phytotoxicity rating SORHA: 0
[5]; 250 g ai/ha
  Pre-emerge herbicidal activity, phytotoxicity rating SORHA: 30
[6]; 63 g ai/ha
  Pre-emerge herbicidal activity, phytotoxicity rating CHEAL: 20
[6]; 250 g ai/ha
  Pre-emerge herbicidal activity, phytotoxicity rating CHEAL: 100
[7]; 63 g ai/ha
  Pre-emerge herbicidal activity, phytotoxicity rating DIGSA: 90
[7]; 250 g ai/ha
  Pre-emerge herbicidal activity, phytotoxicity rating DIGSA: 100
[8]; 63 g ai/ha
  Pre-emerge herbicidal activity, phytotoxicity rating CASOB: 30
[8]; 250 g ai/ha
  Pre-emerge herbicidal activity, phytotoxicity rating CASOB: 30
[9]; 63 g ai/ha
  Pre-emerge herbicidal activity, phytotoxicity rating ABUTH: 30
[9]; 250 g ai/ha
  Pre-emerge herbicidal activity, phytotoxicity rating ABUTH: 100
[10]; 63 g ai/ha
  Pre-emerge phytotoxicity rating, crop damage CORN: 0
[10]; 250 g ai/ha
  Pre-emerge phytotoxicity rating, crop damage CORN: 5
[11]; 63 g ai/ha
  Pre-emerge phytotoxicity rating, crop damage RICE: 15
[11]; 250 g ai/ha
  Pre-emerge phytotoxicity rating, crop damage RICE: 50
[12]; Rate 63 g ai/ha
  Post-emerge Herbicidal Activity, phytotoxicity rating ECHCG: 99
[12]; Rate 250 g ai/ha
  Post-emerge Herbicidal Activity, phytotoxicity rating ECHCG: 100
[13]; Rate 63 g ai/ha
  Post-emerge Herbicidal Activity, phytotoxicity rating AMBEL: 40
[13]; Rate 250 g ai/ha
  Post-emerge Herbicidal Activity, phytotoxicity rating AMBEL: 80
[14]; Rate 63 g ai/ha
  Post-emerge Herbicidal Activity, phytotoxicity rating SETVI: 30
[14]; Rate 250 g ai/ha
  Post-emerge Herbicidal Activity, phytotoxicity rating SETVI: 80
[15]; Rate 63 g ai/ha
  Post-emerge Herbicidal Activity, phytotoxicity rating IPOHE: 70
[15]; Rate 250 g ai/ha
  Post-emerge Herbicidal Activity, phytotoxicity rating IPOHE: 100
[16]; Rate 63 g ai/ha
  Post-emerge Herbicidal Activity, phytotoxicity rating SORHA: 50
[16]; Rate 250 g ai/ha
  Post-emerge Herbicidal Activity, phytotoxicity rating SORHA: 65
[17]; Rate 63 g ai/ha
  Post-emerge Herbicidal Activity, phytotoxicity rating CHEAL: 80
[17]; Rate 250 g ai/ha
  Post-emerge Herbicidal Activity, phytotoxicity rating CHEAL: 100
[18]; Rate 63 g ai/ha
  Post-emerge Herbicidal Activity, phytotoxicity rating DIGSA: 50
[18]; Rate 250 g ai/ha
  Post-emerge Herbicidal Activity, phytotoxicity rating DIGSA: 75
[19]; Rate 63 g ai/ha
  Post-emerge Herbicidal Activity, phytotoxicity rating AMARE: 95
[19]; Rate 250 g ai/ha
  Post-emerge Herbicidal Activity, phytotoxicity rating AMARE: 100
[20]; Rate 63 g ai/ha
  Post-emerge Herbicidal Activity, phytotoxicity rating CASOB: 50
[20]; Rate 250 g ai/ha
  Post-emerge Herbicidal Activity, phytotoxicity rating CASOB: 100
[21]; Rate 63 g ai/ha
  Post-emerge Herbicidal Activity, phytotoxicity rating ABUTH: 90
[21]; Rate 250 g ai/ha
  Post-emerge Herbicidal Activity, phytotoxicity rating ABUTH: 100
[22]; Rate 63 g ai/ha
  Post-emerge phytotoxicity rating CORN (crop damage): 50
[22]; Rate 250 g ai/ha
  Post-emerge phytotoxicity rating CORN (crop damage): 60
[23]; Rate 63 g ai/ha
  Post-emerge phytotoxicity rating RICE (crop damage): 0
[23]; Rate 250 g ai/ha
  Post-emerge phytotoxicity rating RICE (crop damage): 35
